pIC50: −log10 of the molar value.
biological target: T1, human GPR84 receptor (Homo sapiens, UniProt Q9NQS5); assay: Gαi biosensor BRET assay in transfected HEK293 cells (antagonism of GPR84 agonist ZQ-16); format: cell-based; conditions: 200 nmol/L ZQ-16
T1 construct: host or cells: HEK293 cells, transient transfection
Text: Background—The following assays can be used for determination of GPR84 activation in living HEK293 cells. The Gαi BRET biosensor (Gagnon et al., 2018; Gales et al., 2006. Nat Struct Mol Biol. 13, 778-86; Saulieres et al., 2012. Nat Chem Biol. 8, 622-30) allows to directly monitor GPR84-mediated activation of Gαi. The Gαi biosensor consists of a Rluc8-tagged Gαi2 subunit, a GFP10-tagged Gγ2 subunit, and an untagged Gβ1. Agonist stimulation and GPR84 activation triggers a physical separation between the RLuc8-Gαi donor and the GFP10-Gγ2 acceptor, resulting in a decrease in BRET signal whose amplitude is correlated to ligand efficacy (Gales et al., 2006). Moreover, signaling functions of GPCRs are tightly regulated by endocytosis, the targeting of receptors to endosomes and their sorting to lysosomes or recycling to the plasma membrane. The early endosomes (EEs) trafficking assay (Namkung et al., 2016. Nat Commun. 7, 12178) uses Rluc8-tagged GPR84 and Renilla GFP (rGFP) attached to the FYVE domain from human endofin/zinc finger FYVE domain-containing protein 16, which binds phosphatidylinositol 3-phosphate in EEs. Agonist stimulation of GPR84-Rluc8 leads to trafficking of the receptor to EEs, and ensuing increase of the donor concentration relative to the rGFP-FYVE acceptor anchored in the same cellular compartment, and thus results in an increase in BRET signal.
Plasmids—The cDNA clones for human GPR84 receptor, human Gαi2, Gβ1, and Gγ2 were obtained from the cDNA Resource Center (www.cdna.org). GFP10 (F64L, S147P, S202F and H231L variant of Aequorea victoria Green Fluorescent Protein) gBlocks gene fragments (Integrated DNA Technologies, IA) and linker were inserted in frame at the N-terminus of human Gγ2. Rluc8 (A55T, C124A, S130A, K136R, A143M, M185V, M253L, and S287L variant of the Renilla reniformis luciferase) gBlocks gene fragment was inserted with linkers in frame in between residues 91 and 92 of Gα2 or at the C-terminus of GPR84. The FYVE domain from human endofin (residues Q739 to K806) attached in frame at the C terminus of a humanized Renilla GFP (rGFP), were synthesized as gBlocks gene fragments.
Bioluminescence Resonance Energy Transfer (BRET) Measurement—HEK293 cells were transfected with GPR84-Rluc8 and rGFP-FYVE for the EEs trafficking biosensor or with GPR84, Gαi2-Rluc8, GFP10-Gγ2, and Gβ1 for the Gαi biosensor. The following day, transiently transfected cells were seeded in 96-well white clear bottom microplates coated with poly-D-lysine and left in culture for 24 hours. Cells were washed once with Tyrode's buffer (140 mmol/L NaCl, 1 mmol/L CaCl2, 2.7 mmol/L KCl, 0.49 mmol/L MgCl2, 0.37 mmol/L NaH2PO4, 5.6 mmol/L glucose, 12 mmol/L NaHCO3, and 25 mmol/L HEPES, pH 7.5) before performing assays in Tyrode's buffer. Test compounds were incubated with cells for 5 (Gui) or 15 (EEs) minutes at 37° C. before addition of 200 nmol/L of the GPR84 agonist ZQ-16 (2-(Hexylthio)-6-hydroxy-4(3H)-pyrimidinone) for 5 minutes at room temperature (Gui) or 30 minutes at 37° C. (EEs). The Rluc8 substrate coelenterazine 400A (Prolume, Lakeside, AZ) was added at a final concentration of 5 μmol/L and BRET readings were collected using an Infinite M1000 microplate reader (Tecan, Morrisville, NC). BRET^2 readings between Rluc8 and GFP10 or rGFP were collected by sequential integration of the signals detected in the 370 to 450 nm (Rluc8) and 510 to 540 nm (GFP10, rGFP) windows. The BRET signal was calculated as the ratio of light emitted by acceptor (GFP10, rGFP) over the light emitted by donor (Rluc8). The values were corrected to net BRET by subtracting the background BRET signal obtained in cells transfected with Rluc8 constructs alone. Ligand-promoted net BRET values were calculated by subtracting vehicle-induced net BRET from ligand-induced net BRET.

T1 sequence (Q9NQS5 whole entry): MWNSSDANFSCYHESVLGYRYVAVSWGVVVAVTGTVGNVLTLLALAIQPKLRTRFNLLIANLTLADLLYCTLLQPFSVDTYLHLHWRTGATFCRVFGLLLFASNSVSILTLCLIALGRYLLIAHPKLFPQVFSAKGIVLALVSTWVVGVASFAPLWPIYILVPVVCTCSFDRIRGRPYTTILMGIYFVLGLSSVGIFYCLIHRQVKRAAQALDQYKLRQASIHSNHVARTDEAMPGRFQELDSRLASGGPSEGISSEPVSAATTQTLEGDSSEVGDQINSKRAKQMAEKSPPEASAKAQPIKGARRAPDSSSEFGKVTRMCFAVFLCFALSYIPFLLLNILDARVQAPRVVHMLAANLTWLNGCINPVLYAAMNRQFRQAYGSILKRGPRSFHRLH

pIC50	Structure (SMILES)
6.00 to 6.52	CN(C)c1cc(C#CC2CC2)ccc1N(C)C(=O)c1cn(CC2OCC3(CC3)CO2)nn1 [Compound I-1, 1-((5,7-dioxaspiro[2.5]octan-6-yl)methyl)-N-(4-(cyclopropylethynyl)-2-(dimethylamino)phenyl)-N-methyl-1H-1,2,3-triazole-4-carboxamide]
6.00 to 6.52	Cc1cc(C#CC2CC2)cnc1CN(C)c1cn(CC2OCC3(CC3)CO2)nn1 [Compound I-5, 1-((5,7-dioxaspiro[2.5]octan-6-yl)methyl)-N-((5-(cyclopropylethynyl)-3-methylpyridin-2-yl)methyl)-N-methyl-1H-1,2,3-triazol-4-amine]

same assay, conditions: HEK293, single concentration, code A = 2 μM, 200 nmol/L ZQ-16

inhibition at 2 µM [%]	Structure (SMILES)
≤ 25	Cc1ccc(C#CC2CC2)cc1Nc1cn(CC(=O)N(C)C)nn1 [Compound I-6, 2-(4-((5-(cyclopropylethynyl)-2-methylphenyl)amino)-1H-1,2,3-triazol-1-yl)-N,N-dimethylacetamide]
≤ 25	Cc1ccc(C#CC2CC2)cc1NCc1cn(CC2OCC3(CC3)CO2)nn1 [Compound I-11, N-((1-((5,7-dioxaspiro[2.5]octan-6-yl)methyl)-1H-1,2,3-triazol-4-yl)methyl)-5-(cyclopropylethynyl)-2-methylaniline]

same assay, conditions: HEK293, single concentration, code E = 6.7 μM, 200 nmol/L ZQ-16

inhibition at 6.7 µM [%]	Structure (SMILES)
≤ 25	Cc1ccc(C#CC2CC2)cc1C(=O)Nc1cn(CC2OCC3(CC3)CO2)nn1 [Compound I-9, N-(1-((5,7-dioxaspiro[2.5]octan-6-yl)methyl)-1H-1,2,3-triazol-4-yl)-5-(cyclopropylethynyl)-2-methylbenzamide]

same assay, conditions: HEK293, single concentration, code F = 10 μM, 200 nmol/L ZQ-16

inhibition at 10 µM [%]	Structure (SMILES)
> 75	CN(C)c1cc(C#CC2CC2)ccc1N(C)C(=O)c1cn(CC2OCC3(CC3)CO2)nn1 [Compound I-1, 1-((5,7-dioxaspiro[2.5]octan-6-yl)methyl)-N-(4-(cyclopropylethynyl)-2-(dimethylamino)phenyl)-N-methyl-1H-1,2,3-triazole-4-carboxamide]
≤ 25	Cc1ccc(C#CC2CC2)cc1N(C)C(=O)c1ccc(OCC(=O)N(C)C)nc1C [Compound I-2, N-(5-(cyclopropylethynyl)-2-methylphenyl)-6-(2-(dimethylamino)-2-oxoethoxy)-N,2-dimethylnicotinamide]
≤ 25	Cc1ccc(C#CC2CC2)cc1N(C)C(=O)c1ccc(=O)n(CC(=O)N(C)C)c1C [Compound I-3, N-(5-(cyclopropylethynyl)-2-methylphenyl)-1-(2-(dimethylamino)-2-oxoethyl)-N,2-dimethyl-6-oxo-1,6-dihydropyridine-3-carboxamide]
≤ 25	Cc1ccc(C#CC2CC2)c2c1N(C(=O)c1cn(CC3OCC4(CC4)CO3)nn1)CC2 [Compound I-4, (1-((5,7-dioxaspiro[2.5]octan-6-yl)methyl)-1H-1,2,3-triazol-4-yl)(4-(cyclopropylethynyl)-7-methylindolin-1-yl)methanone]
> 75	Cc1cc(C#CC2CC2)cnc1CN(C)c1cn(CC2OCC3(CC3)CO2)nn1 [Compound I-5, 1-((5,7-dioxaspiro[2.5]octan-6-yl)methyl)-N-((5-(cyclopropylethynyl)-3-methylpyridin-2-yl)methyl)-N-methyl-1H-1,2,3-triazol-4-amine]
> 75	Cc1ccc(C#CC2CC2)cc1N(C)c1cn(CC(=O)N(C)C)nn1 [Compound I-7, 2-(4-((5-(cyclopropylethynyl)-2-methylphenyl)(methyl)amino)-1H-1,2,3-triazol-1-yl)-N,N-dimethylacetamide]
> 75	CN(c1cn(CC2OCC3(CC3)CO2)nn1)c1cc(C#CC2CC2)ccc1Cl [Compound I-8, 1-((5,7-dioxaspiro[2.5]octan-6-yl)methyl)-N-(2-chloro-5-(cyclopropylethynyl)phenyl)-N-methyl-1H-1,2,3-triazol-4-amine]
25 to 50	Cc1ccc(C#CC2CC2)cc1CN(C)c1cn(CC2OCC3(CC3)CO2)nn1 [Compound I-10, 1-((5,7-dioxaspiro[2.5]octan-6-yl)methyl)-N-(5-(cyclopropylethynyl)-2-methylbenzyl)-N-methyl-1H-1,2,3-triazol-4-amine]
25 to 50	Cc1ccc(C#CC2CC2)cc1N(C)Cc1cn(CC2OCC3(CC3)CO2)nn1 [Compound I-12, N-((1-((5,7-dioxaspiro[2.5]octan-6-yl)methyl)-1H-1,2,3-triazol-4-yl)methyl)-5-(cyclopropylethynyl)-N,2-dimethylaniline]
25 to 50	Cc1ccc(C#CC2CC2)cc1N(C)C(=O)c1cn(CC(=O)N(C)C)nn1 [Compound I-13, N-(5-(cyclopropylethynyl)-2-methylphenyl)-1-(2-(dimethylamino)-2-oxoethyl)-N-methyl-1H-1,2,3-triazole-4-carboxamide]

Structure (SMILES)	inhibition at 10 µM [%]
Cc1ccc(C#CC2CC2)cc1NC(=O)c1cn(CC2OCC3(CC3)CO2)nn1 [Compound I-14]	≤ 25

Source: US20260028330A1, “HETEROARYL CARBOXAMIDE AND RELATED GPR84 ANTAGONISTS AND USES THEREOF” (LIMINAL BIOSCIENCES LIMITED, priority 2022, published 2026)
